Columns and labels:
[1] = tested on: Idiopathic Pulmonary Fibrosis patients; test: Response to treatment with only doxycycline (case reports); format: in vivo, human
Text: Example 1 Response to Treatment with Only Doxycycline […]

suspected IPF patients = conditions: human, in vivo
[2] = tested on: patients (periodontal disease, malaria prevention, Pulmonary Capillary Hemangiomatosis, Q fever endocarditis); conditions: in vivo; cited from earlier work
IPF patients = conditions: cited from earlier work
[3] = Case 2, 01 Oct. 2007 (earlier date, baseline)
[4] = Case 2, 09 Jan. 2008, on doxycycline 100 mg twice a day for over 3 months
[5] = Case 4, 10 Jan. 2004 (earlier date, baseline)
[6] = Case 4, 20 Aug. 2004, after doxycycline for over 7 months

C[C@H]1c2cccc(O)c2C(=O)C2=C(O)[C@]3(O)C(=O)C(C(N)=O)=C(O)[C@@H](N(C)C)[C@@H]3[C@@H](O)[C@@H]21 [doxycycline]
6 minute Walking distance [1, 3]: 980 ft
FVC [1, 3]: 1.66 L
6 minute Walking distance [1, 4]: 1155 ft
FVC [1, 4]: 1.92 L
FEV1 [1, 5]: 1.15
FVC [1, 5]: 2.12
TLCO(%) [1, 5]: 49.4%
TLCO/VA [1, 5]: 102.6
VA [1, 5]: 3.76
FVC ([1]; Case 4, 20 Aug. 2004, after doxycycline 100 mg twice a day for over 7 months): 2.45
FEV1 [1, 6]: 1.51
TLCO(%) [1, 6]: 58.9%
TLCO/VA [1, 6]: 127.9
VA [1, 6]: 3.59
Intolerance or adverse reaction (suspected IPF patients): no intolerance or adverse reaction
Tolerability (suspected IPF patients): well tolerated
Harm in long-term use (ACMP conclusion) [2]: no evidence of harm
Tolerability in Pulmonary Capillary Hemangiomatosis with atypical endotheliomatosis [2]: without any problem

CC(C)(S)[C@@H](N)C(=O)O [D-penicillamine]
Benefit of antifibrotic therapy in IPF (IPF patients; in vivo): did not show any significant benefit

doxycycline hyclate [doxycycline hyclate (Periostat)]
Safety in clinical studies [2]: safe

COc1cc2c(c(OC)c1OC)-c1ccc(OC)c(=O)cc1[C@@H](NC(C)=O)CC2 [colchicines]
Benefit of antifibrotic therapy in IPF (IPF patients; in vivo): did not show any significant benefit

Cc1ccc(=O)n(-c2ccccc2)c1 [Pirfinidone]
Tolerability (IPF patients; in vivo): well tolerated

B1: Interferon gamma-1b: a down regulator to TGFβ (protein, UniProt P01579 24-161, looked up)
Interferon gamma: QDPYVKEAENLKKYFNAGHSDVADNGTLFLGILKNWKEESDRKIMQSQIVSFYFKLFKNFKDDQSIQKSVETIKEDMNVKFFNSNKKKRDDFEKLTNYSVTDLNVQRKAIHELIQVMAELSPAAKTGKRKRSQMLFRG
Lung volume, gas exchange and symptoms (IPF patients; one year study): increase
Efficacy in IPF (IPF patients; recent double blind controlled trial): ruled out its efficacy

Source: patent US20100130452A1, “Use of Doxycycline in the Treatment of Idiopathic Pulmonary Fibrosis” (NATIONAL RESEARCH DEVELOPMENT CORPORATION, priority 2007, published 2010)
